A compilation of properties of binary mixtures (doi:10.1016/j.molliq.2021.115610)

Test: xn = mol fraction of the nth substance listed
Conditions: 298 K, 101 kPa

CCCC[NH3+].O=[N+]([O-])[O-] + O
viscosity (x2 = 0.112): 69.8 mPa·s
viscosity (x2 = 0.2): 49.5 mPa·s
viscosity (x2 = 0.397): 23.17 mPa·s
viscosity (x2 = 0.494): 15.53 mPa·s
viscosity (x2 = 0.596): 10.22 mPa·s
viscosity (x2 = 0.698): 6.54 mPa·s
viscosity (x2 = 0.95): 1.53 mPa·s

CC[NH3+].O=[N+]([O-])[O-] + O
viscosity (x2 = 0): 37.5 mPa·s
viscosity (x2 = 0.1): 27.33 mPa·s
viscosity (x2 = 0.198): 19.84 mPa·s
viscosity (x2 = 0.294): 14.51 mPa·s
viscosity (x2 = 0.394): 10.37 mPa·s
viscosity (x2 = 0.5): 7.16 mPa·s
viscosity (x2 = 0.6): 4.98 mPa·s
viscosity (x2 = 0.799): 2.27 mPa·s
viscosity (x2 = 0.9): 1.47 mPa·s

O + CC[NH3+].O=[N+]([O-])[O-]
viscosity (x1 = 1): 0.89 mPa·s
